Test results reported in US20110166428A1, “NOVEL METHOD FOR MEASURING INSULIN RESISTANCE” (UNIVERSITE JOSEPH FOURIER, priority 2008, published 2011).
Several values for one entry are separate records, joined by “and”; a condition that tells them apart may be missing. Identical values can stand only once.

Experiments:
[1] = Scintigraphy of 123I-6DIG in the dog: thoracic and blood activity, fasting or under GIK; assay type: in vivo; conditions: for slope of cardiac activity measured between 2 and 5 minutes: dog heart, FIG. 8
Experimental: This graph represents on the y-axis the variations in […], for one pixel and in the quantity (in mCi) of 6DIG injected, in relation to the x-axis which represents the data acquisition time in minutes, in the heart of a dog. The measured activity is related to the number of pixels, since when a region of interest is determined on a scintigraphy image, the number of pixels in the manually selected zone is not always the same.
Two series of data are shown; a first series of measurements indicated by linked squares represents the data recorded for a fasting animal. A second series of data, indicated by linked circles, represents the data recorded for an animal perfused with a GIK solution (Glucose/Insulin/potassium).
Animals: male beagle dogs aged about 1 year, weighing between 15 and 20 kg and fed with a standard diet Jape 21 (Ets L. Pietrement).
The dogs, premedicated with an intramuscular injection of ketamine (10 mg/kg), are anaesthetised by means of an intravenous injection of sodium thiopental (25 mg/kg). The animals are intubated and ventilated throughout the experiment and kept asleep with halothane in the ventilation circuit (oxygen-enriched air).
6DIG (20 μmol) labelled with iodine 123 (about 4 mCi) is injected intravenously. The scintigraphy images are acquired by means of a standard gamma camera equipped with a high resolution collimator and the […] is set at 160 keV with a 20% window. The variation in the thoracic radioactivity (heart, lungs and liver) with time is measured for 30 minutes post-injection, at the rate of one image per minute. The change in the blood activity is obtained by taking blood samples (1, 2, 3, 4, 5, 10. 15, 20 and 30 min p.i.) and the measurement of the radioactivity by means of a gamma counter (Packard).
Two protocols were followed, the first was implemented in fasting animals (withdrawal of food the night before the experiment, n=1) and the second was implemented in animals perfused with a GIK (Glucose/Insulin/Potassium) solution containing in particular insulin (30% glucose, 4 g/l of KCl and 80 IU/kg of insulin, n=2) and maintained throughout the experiment.

[2] = tested on: Zucker rats (insulin resistant); assay: Sensitivity of the empirical index of glucose transport into the heart, Rosiglitazone vs placebo; assay type: in vivo, rat; conditions: three weeks after treatment
Excerpt: (§1) This graph represents the mean obtained during the calculations of empirical descriptor in the heart, in the Zucker rat, with or without treatment with Rosiglitazone or with a placebo. The values of the descriptor are shown on the y-axis. The x-axis comprises 4 columns: the two on the left and the two on the right; the two on the left relate to the values observed for the rats at the start of observation before any injection, and the two on the right relate to the rats 21 days after injection. The white columns indicate rats having undergone an injection of Rosiglitazone, the black columns indicate rats having undergone an injection of a placebo.
The rat receives a first bolus of 6-DIG labelled with iodine 123 (about 250 μCi, this activity being counted in a Capintec CRC15R ionisation chamber supplied by Aries, France) in the basal condition. The activity of the 6-DIG is monitored with the gamma camera (field of view 10 cm, intrinsic resolution 1.8 mm, Biospace, France) in cardiac cells for 20 minutes. During these 20 minutes, the radioactivity is counted in “LIST” mode and analysed a posteriori.
The rat then receives an injection of insulin (2.5 IU/kg), performed 5 minutes before a second injection of the tracer (about 250 μCi). The activity of the 6-DIG is again monitored with the gamma camera in cardiac cells for 20 minutes. […]

[3] = tested on: Zucker rats (insulin resistant); assay: Sensitivity of the empirical index of glucose transport into the skeletal muscle, Rosiglitazone vs placebo; assay type: in vivo, rat; conditions: three weeks after treatment
Excerpt: This graph represents the mean obtained during calculations of the empirical descriptor in the skeletal muscle, in the Zucker rat, with or without treatment with Rosiglitazone or with a placebo. The values of the descriptor are shown on the y-axis. The x-axis comprises 4 columns: the two on the left and the two on the right; the two on the left relate to the values observed for the rats at the start of observation before any injection, and the two on the right relate to the rats 21 days after injection. The white columns indicate rats having undergone an injection of Rosiglitazone, the black columns indicate rats having undergone an injection of a placebo.
The rat receives a first bolus of 6-DIG labelled with iodine 123 (about 250 μCi, this activity being counted in a Capintec CRC15R ionisation chamber supplied by Aries, France) in the basal condition. The activity of the 6-DIG is monitored with the gamma camera (field of view 10 cm, intrinsic resolution 1.8 mm, Biospace, France), or with the NaI probe (Scintibloc from Crismatec (Nemours, France) and ScintiSPEC, Aries) in skeletal muscle cells (quadriceps of hind paw) for 20 minutes. During these 20 minutes, the radioactivity is counted in “LIST” mode (TD. Cradduck, Computers in Nuclear Medicine, Vol. 5; No. 1, 1985, Radiographics) and analysed a posteriori […]

[4] = tested on: Zucker rats (insulin resistant); assay: Sensitivity of the theoretical index k(2,1) insulin/basal of glucose transport into the heart, Rosiglitazone vs placebo; assay type: in vivo, rat; conditions: seven days after treatment, p<0.05, FIG. 18
Excerpt: as §1, with “during” for “during the”, “the theoretical index” for “empirical descriptor”, “index” for “descriptor”, “7” for “21”
The model utilised is a three-compartment mammillary model, derived from that used to measure the kinetic parameters of transport of 3OMG, the reference tracer for glucose transport (Cobelli, 1989; Am. J. Physiol., 257, E444-E450). It makes it possible to study the biological behaviour of the tracer after injection in the rat in vivo (Slimani L. et al., CR Biol, 2002, 325(4), 529-546). The central compartment (s1) represents the plasma. […] The radioactivity measured at the level of compartments 1 and 2 is designated respectively as q1 and q2. […]
The index characterizing the rate of glucose transport into the heart was measured twice, 7 days apart, on the same animal, treated with Rosiglitazone or a placebo. […]

slope of cardiac activity measured between 2 and 5 minutes ([1]; fasting) | slope of cardiac activity measured between 2 and 5 minutes ([1]; under GIK perfusion) | blood activity ([1]; dog, i.v., blood samples, gamma counter) | Structure (SMILES) | pulmonary activity ([1]; dog, i.v., gamma camera) | activity in the liver ([1]; dog, i.v., gamma camera, 30 minutes post-injection) | empirical descriptor (empirical index of rate of glucose transport into the heart) vs rats treated with placebo ([2]; p=0.006, FIG. 12) | empirical descriptor (empirical index of rate of glucose transport into the heart) vs same rats before treatment ([2]; p=0.033, FIG. 12) | empirical descriptor (empirical index of rate of glucose transport into the skeletal muscle) vs rats treated with placebo ([3]; p=0.005, FIG. 16) | empirical descriptor (empirical index of rate of glucose transport into the skeletal muscle) vs same rats before treatment ([3]; p=0.021, FIG. 16) | index characterizing the rate of glucose transport into the heart (theoretical index) vs rats treated with placebo [4]
0.013 | 0.044 and 0.022 | decreases very rapidly | O=C[C@H](O)[C@@H](O)[C@H](O)[C@H](O)CI [6DIG, 6-Deoxy-6-Iodo-D-Glucose] | low and comparable to the background noise | greatest in the liver at 5 minutes but decreases rapidly | – | – | – | – | –
– | – | – | CN(CCOc1ccc(CC2SC(=O)NC2=O)cc1)c1ccccn1 (racemic) [Rosiglitazone, (±)-5-[[4-[2-(methyl-2-pyridinylamino)ethoxy]phenyl]methyl]-2,4-thiazolidinedione] | – | – | significantly greater | significantly greater | significantly greater | significantly greater | significantly greater
